Assay results reported in patent US8399502B2, “Analogs of indole-3-carbinol and their use as agents against infection” (priority 2008, dated 2013).
Values after ≈ are worked out from the molar mass of the structure shown.

Columns and labels:
Type in all cases: cell-based
[1] = system: Acinetobacter baumannii (AB); experiment: MIC determination; settings: Table 3
[2] = system: Listeria monocytogenes (LM); experiment: MIC determination; settings: Table 3
[3] = system: Shigella dysenteriae (SD); experiment: MIC determination; settings: Table 3
[4] = system: Vancomycin-resistant Enterococcus faecalis (VRE); experiment: MIC determination; settings: Table 3
[5] = system: Vancomycin-Sensitive Enterococcus faecalis (VSE); experiment: MIC determination; settings: Table 3
[6] = system: Francisella tularensis (FT; Gram-negative); experiment: microbe, parasite or virus in culture; settings: read-out: MIC FT
[7] = system: Bacillus anthracis (BA; Gram-positive); experiment: microbe, parasite or virus in culture; settings: read-out: MIC BA
[8] = system: methicillin-resistant Staphylococcus aureus (MRSA); experiment: microbe, parasite or virus in culture; settings: read-out: MIC MRSA
[9] = system: penicillin-susceptible S. pneumoniae (PSSP); experiment: microbe, parasite or virus in culture; settings: Streptococcus pneumoniae, read-out: MIC PSSP
[10] = system: methicillin-susceptible Staphylococcus aureus (MSSA); experiment: microbe, parasite or virus in culture; settings: read-out: MIC MSSA
[11] = system: penicillin-resistant S. pneumoniae (PRSP); experiment: microbe, parasite or virus in culture; settings: Streptococcus pneumoniae, read-out: MIC PRSP
[12] = system: Mycobacteruim tuberculosis H37Rv (H37Rv); experiment: microbe, parasite or virus in culture; settings: Mycobacterium tuberculosis, read-out: MIC against Tubercle bacillus

SMILES	MIC [6] [µg/mL]	MIC [7] [µg/mL]	MIC [8] [µg/mL]	MIC [9] [µg/mL]	MIC [10] [µg/mL]	MIC [11] [µg/mL]	also measured
Fc1ccc2[nH]c3c(O[C@@H]4CCNC4)c4[nH]c5ccc(F)cc5c4cc3c2c1 [drawing 269]	–	–	–	–	–	–	MIC [1]: 4 µg/mL (≈ 10.6 µM); MIC [2]: 2 µg/mL (≈ 5.3 µM); MIC [3]: 4 µg/mL (≈ 10.6 µM); MIC [4]: 1 µg/mL (≈ 2.65 µM); MIC [5]: 2 µg/mL (≈ 5.3 µM)
CN(C)CCOc1c2[nH]c3ccc(F)cc3c2cc2c1[nH]c1ccc(F)cc12 [drawing 265]	–	–	–	–	–	–	MIC [1]: 4 µg/mL (≈ 10.5 µM); MIC [2]: 2 µg/mL (≈ 5.27 µM); MIC [3]: 8 µg/mL (≈ 21.1 µM); MIC [4]: 2 µg/mL (≈ 5.27 µM); MIC [5]: 1 µg/mL (≈ 2.64 µM)
Cc1onc(-c2ccccc2)c1C(=O)N[C@@H]1C(=O)N2[C@@H]1SC(C)(C)[C@@H]2C(=O)O [Oxacillin, oxacillin, reference compound]	> 64	0.8 (≈ 1.99 µM)	> 64	0.1 (≈ 0.249 µM)	–	–	–
OC1CCN(CCCOc2c3[nH]c4ccc(Cl)cc4c3cc3c2[nH]c2ccc(Cl)cc23)CC1 [drawing 267]	–	–	–	–	–	–	MIC [1]: 4 µg/mL (≈ 8.29 µM); MIC [2]: 1 µg/mL (≈ 2.07 µM); MIC [3]: 8 µg/mL (≈ 16.6 µM); MIC [4]: 2 µg/mL (≈ 4.15 µM); MIC [5]: 4 µg/mL (≈ 8.29 µM)
N=C(N)NCCCOc1c2[nH]c3ccc(F)cc3c2cc2c1[nH]c1ccc(F)cc12 [drawing 268]	–	–	–	–	–	–	MIC [1]: 8 µg/mL (≈ 19.6 µM); MIC [2]: 4 µg/mL (≈ 9.82 µM); MIC [3]: 8 µg/mL (≈ 19.6 µM); MIC [4]: 2 µg/mL (≈ 4.91 µM); MIC [5]: 8 µg/mL (≈ 19.6 µM)
c1ccc2c(Cc3c[nH]c4ccccc34)c[nH]c2c1	8 (≈ 32.5 µM)	> 64	> 64	> 64	> 64	8 (≈ 32.5 µM)	–
C=C(c1c[nH]c2ccccc12)c1c[nH]c2ccccc12	16 (≈ 61.9 µM)	8 (≈ 31 µM)	8 (≈ 31 µM)	4 (≈ 15.5 µM)	8 (≈ 31 µM)	2 (≈ 7.74 µM)	–
Fc1ccc2[nH]c3c(OCCCNC4=NCCN4)c4[nH]c5ccc(F)cc5c4cc3c2c1 [drawing 270]	–	–	–	–	–	–	MIC [1]: 4 µg/mL (≈ 9.23 µM); MIC [2]: 2 µg/mL (≈ 4.61 µM); MIC [3]: 8 µg/mL (≈ 18.5 µM); MIC [4]: 1 µg/mL (≈ 2.31 µM); MIC [5]: 4 µg/mL (≈ 9.23 µM)
CCOC(=O)Oc1c2[nH]c3ccccc3c2cc2c1[nH]c1ccccc12	≤ 0.5	4 (≈ 11.6 µM)	4 (≈ 11.6 µM)	4 (≈ 11.6 µM)	4 (≈ 11.6 µM)	2 (≈ 5.81 µM)	–
N=C(N)NCCCOc1c2[nH]c3ccc(Cl)cc3c2cc2c1[nH]c1ccc(Cl)cc12 [drawing 274]	–	–	–	–	–	–	MIC [12]: 10 µg/mL (≈ 22.7 µM)
N=C(N)NCCCOc1c2[nH]c3ccc(Cl)cc3c2cc2c1[nH]c1ccc(Cl)cc12 [drawing 266]	–	–	–	–	–	–	MIC [1]: 4 µg/mL (≈ 9.08 µM); MIC [2]: 1 µg/mL (≈ 2.27 µM); MIC [3]: 4 µg/mL (≈ 9.08 µM); MIC [4]: 2 µg/mL (≈ 4.54 µM); MIC [5]: 4 µg/mL (≈ 9.08 µM)
CCOC(=O)c1ccc2[nH]cc(Cc3c(C)[nH]c4ccccc34)c2c1	4 (≈ 12 µM)	8 (≈ 24.1 µM)	> 64	2 (≈ 6.02 µM)	> 64	8 (≈ 24.1 µM)	–
COc1c2[nH]c3ccc(F)cc3c2cc2c1[nH]c1ccc(F)cc12 [drawing 271]	–	–	–	–	–	–	MIC [12]: > 10 µg/mL
Cc1c2[nH]c3ccccc3c2cc2c1[nH]c1ccccc12 [drawing 263]	≤ 0.5	1 (≈ 3.7 µM)	4 (≈ 14.8 µM)	1 (≈ 3.7 µM)	2 (≈ 7.4 µM)	1 (≈ 3.7 µM)	–
Cc1c2[nH]c3ccccc3c2cc2c1[nH]c1ccccc12 [drawing 281]	–	–	–	–	–	–	MIC [12]: 10 µg/mL (≈ 37 µM)
c1ccc2[nH]c(Cc3cc4ccccc4[nH]3)cc2c1	4 (≈ 16.2 µM)	16 (≈ 65 µM)	32 (≈ 130 µM)	1 (≈ 4.06 µM)	16 (≈ 65 µM)	2 (≈ 8.12 µM)	–
c1ccc2c(Cc3[nH]c4ccccc4c3Cc3c[nH]c4ccccc34)c[nH]c2c1	2 (≈ 5.33 µM)	4 (≈ 10.7 µM)	8 (≈ 21.3 µM)	4 (≈ 10.7 µM)	8 (≈ 21.3 µM)	2 (≈ 5.33 µM)	–
Fc1ccc2[nH]c3c(O[C@H]4CCNC4)c4[nH]c5ccc(F)cc5c4cc3c2c1 [drawing 280]	–	–	–	–	–	–	MIC [12]: 5 µg/mL (≈ 13.2 µM)
Fc1ccc2[nH]c3c(O[C@@H]4CCNC4)c4[nH]c5ccc(F)cc5c4cc3c2c1 [drawing 279]	–	–	–	–	–	–	MIC [12]: 10 µg/mL (≈ 26.5 µM)
N=C(N)NCCCOc1c2[nH]c3ccc(F)cc3c2cc2c1[nH]c1ccc(F)cc12 [drawing 277]	–	–	–	–	–	–	MIC [12]: 10 µg/mL (≈ 24.5 µM)
c1ccc2[nH]c(Cc3c[nH]c4ccccc34)cc2c1	4 (≈ 16.2 µM)	16 (≈ 65 µM)	32 (≈ 130 µM)	8 (≈ 32.5 µM)	32 (≈ 130 µM)	1 (≈ 4.06 µM)	–
